Laboratory results published in US20220202835A1, “INJECTABLE CLORSULON COMPOSITIONS, METHODS AND USES THEREOF” (Boehringer Ingelheim Animal Health USA Inc., priority 2019, published 2022).

Tests used:
Fasciola hepatica [1] = assay: Study 2: efficacy against four week old Fasciola hepatica in cattle
[2] = Study 2: clorsulon plasma pharmacokinetics in cattle (LC-MS); format: in vivo; conditions: for Maximum plasma concentrations: cattle
Procedure: Whole blood samples for analysis of plasma for analysis of clorsulon were collected from the jugular vein. Samples were collected in ˜7.5 mL lithium heparinized tubes for plasma preparation once prior to treatment on Day-2±1. Thereafter, blood samples were collected according to the Schedule of Operations (Table 3). The time of blood sampling was recorded, and care was taken to avoid cross-contamination of samples during sample collection, storage, and processing. Plasma was recovered from each sample, aliquoted (two aliquots) and stored frozen (at or below −20° C.) until required for assays. The cryo-tubes were labeled with Study Number, type of sample, date, Study Day/time of sampling, and animal ID.
One aliquot with plasma was used for analysis for clorsulon concentrations using currently High Performance Liquid Chromatography-Mass Spectrometry (LC-MS) methodology.
Plasma samples were assayed for clorsulon.
If quantifiable plasma concentrations were determined for an animal, pharmacokinetic analysis was performed as described below. Clorsulon plasma concentrations were determined for an animal at each sampling time, when appropriate. […] The mean concentration-time profiles will be obtained by averaging the concentrations at each sampling time point for all treated animals.
The therapeutic efficacy and pharmacokinetic parameters of clorsulon were evaluated when administered subcutaneously as 30% (w/v) clorsulon formulation to cattle experimentally infected with liver flukes (Fasciola hepatica). This study differs from Study Number 1 in that there is no administration of 10% (w/v) clorsulon and only immature (four week old) F. hepatica flukes were used.

Fasciola hepatica [3] = assay: Study 1: efficacy against induced Fasciola hepatica infection in cattle (fluke counts at necropsy); conditions: subcutaneously to cattle at 6 and 8 mg/kg bodyweight as a 30% w/v solution

Structure (SMILES): Nc1cc(C(Cl)=C(Cl)Cl)c(S(N)(=O)=O)cc1S(N)(=O)=O [clorsulon, 4-amino-6-(1,2,2-trichloroethenyl)benzene-1,3-disulfonamide]
- Eff (%) against Fasciola hepatica (Fasciola hepatica [1]; Group 2: 30% w/v solution, 8 mg/kg subcutaneously once on Day 0 (4 week old flukes)): 99.6%
- Eff (%) against Fasciola hepatica (Fasciola hepatica [1]; Group 3: 30% w/v solution, 6 mg/kg subcutaneously once on Day 0 (4 week old flukes)): 99.9%
- Eff (%) against Fasciola hepatica (Fasciola hepatica [1]; Group 4: 30% w/v solution, 4 mg/kg subcutaneously once on Day 0 (4 week old flukes)): 92.9%
- Maximum plasma concentrations ([2]; Group 2: 30% w/v solution, 8 mg clorsulon/kg SC): 5740 ± 1160 ng/mL
- Maximum plasma concentrations ([2]; Group 3: 30% w/v solution, 6 mg clorsulon/kg SC): 4430 ± 988 ng/mL
- Maximum plasma concentrations ([2]; Group 4: 30% w/v solution, 4 mg clorsulon/kg SC): 3140 ± 530 ng/mL
- time at which maximum plasma concentrations were reached ([2]; Groups 2-4 (4, 6, 8 mg/kg SC), 12 out of 18 animals): ≤ 12 h
- efficacy against early immature (four and six week old) F. hepatica (Fasciola hepatica [3]): 98-100%
